For 15 compounds, IC50 results are on record in patent US8669256B2, “Substituted thieno[2,3-b]pyrazine compounds as modulators of B-Raf kinase activity” (Merck Sharp & Dohme B.V., priority 2010, dated 2014).

Test [1] has as its target T1, GST-tagged human recombinant active B-Raf (Δ1-415) (Homo sapiens, UniProt P15056).
T1 construct: GST; purchased Upstate/Millipore
Description: B-Raf kinase activity, IMAP coupled assay (B-Raf/MEK1/ERK2, fluorescence polarization). As to conditions: bounds also given as pIC50 (>6, >7, >8); 60 min pre-incubation with compound, ATP 50 μM; read-out: IC50, B-Raf IMAP assay. It is filed as biochemical.
Excerpt: (§1) In another assay the B-Raf kinase activity can be determined by using an IMAP assay (Immobilized Metal Assay for Phosphochemicals-based coupled assay). IMAP is a homogeneous fluorescence polarization (FP) assay based on affinity capture of phosphorylated peptide substrates. IMAP uses fluorescein-labeled peptide substrates that, upon phosphorylation by a protein kinase, bind to so called IMAP nanoparticles, which are derivatized with trivalent metal complexes. Such binding causes a change in the rate of the molecular motion of the peptide, and results in an increase in the FP value observed for the fluorescein label attached to the substrate peptide. In such an assay, B-Raf phosphorylates unactive MEK1. The phosphorylated MEK1 is capable of phosphorylating ERK2, which subsequently phosphorylates the fluorescein-labeled peptide substrate.
Determination of B-Raf Kinase Activity using an IMAP Assay
as §1, with “Inhibition of” for “In another assay the”, “was measured” for “can be determined by”, “Immobilized” for “IMAP assay (Immobilized”, “assay (IMAP).” for “assay).”, “this” for “such an”
Enzymes, substrate and ATP were diluted at all steps in Kinase Reaction buffer (10 mM Tris-HCl, 10 mM MgCl2, 0.01% Tween-20, 0.05% NaN3 pH 7.2, 1 mM DTT). The final volume at the kinase reaction step of the assay in the 384-well plate was 20 μl. The concentrations within brackets are final concentrations in the assay. B-Raf (GST-tagged human recombinant active B-Raf (Δ1-415), Upstate/Millipore; 0.2 U/ml) was pre-incubated with compounds or DMSO (1% final concentration) for 60 minutes at room temperature in the dark. Thereafter, MEK 1 (GST-tagged human recombinant unactive MEK1 (full-length); 64 ng/ml), ERK2 (GST-tagged human recombinant unactive ERK2 (full-length); 600 ng/ml), peptide substrate (Erktide, Molecular Devices; 50 nM) and ATP (50 μM) were added to the wells and the mix was incubated for another 60 minutes at 30° C. in the dark. Then, IMAP progressive binding buffer (75% 1× buffer A, 25% 1× buffer B, 1:900 Progressive Binding Reagent; Molecular Devices) was added followed by an incubation step of 60 minutes at room temperature in the dark. Finally, the FP signal was read on an Envision Multilabel reader (Perkin Elmer).

In test [2] the test system is phosphorylation of ERK1/2 in A375 cells containing mutant B-Raf (V600E). In words: Phospho-ERK FACE assay in A375 (B-Raf mutated) melanoma cell line. It is filed as cell-based. Particulars: Homo sapiens, A-375, A375 cells, 2 hours incubation, read-out: IC50, A375 melanoma phospho-ERK assay. The method, then:
The B-Raf activity can also be determined in a B-Raf mutated melanoma cell line, such as the A375 cell line. Inhibition of phosphorylation of ERK1/2 can be measured using a Fast Activated Cell-based ELISA (FACE) from Active Motif (Carlsbad, U.S.A., CA). E.g. A375 cells, which are cells containing a mutant form of B-Raf (V600E) and thus contain high levels of phosphorylated ERK, can be incubated with Raf inhibitors. Then cells can be incubated with anti-phospho-ERK antibody and subsequently with horse radish peroxidase (HRP)-labeled secondary antibody. Finally, chemiluminescence reagents can be added, which react with HRP, to give a luminescence signal.
Determination of B-Raf Activity Using a A375 (B-Raf mutated) Melanoma Cell Line (Phospho-ERK FACE Assay)
Inhibition of phosphorylation of ERK1/2 was measured using a Fast Activated Cell-based ELISA (FACE) from Active Motif (Carlsbad, U.S.A., CA). Briefly, A375 cells, which are cells containing a mutant form of B-Raf (V600E) and thus contain high levels of phosphorylated ERK, were incubated for 2 hours with Raf inhibitors. Then, cells were fixed with paraformaldehyde, washed and following quenching and blocking, incubated with anti-phospho-ERK antibody, and as a control, on a separate plate, with ERK antibody. After washing and removal of the primary antibodies, the fixed cells were incubated with horse radish peroxidase (HRP)-labeled secondary antibody. Finally, chemiluminescence reagents were added, which react with HRP, to give a luminescence signal.
Detailed protocol: A375 cells were cultured in DMEM/F12 (Dulbecco's Modified Eagle Medium Nutrient Mixture F-12) (Invitrogen), supplemented with 10% fetal bovine serum (FBS) (Biowhittaker), 100 U/ml penicillin G and 100 μg/ml streptomycin (Gibco). For the phospho ERK assay, cells were seeded at a density of 15,000 cells/well in 100 μl culture medium in 96-well plates and incubated in a humidified atmosphere at 5% CO2 and 37° C. After 24 hours, cells were washed with DMEM/F12 supplemented with 0.1% FBS (assay medium 120 μl of assay medium was added and the plates were incubated overnight in a humidified atmosphere at 5% CO2 and 37° C. The next day, the assay medium was removed and compounds diluted in assay medium were added to the cells. Final DMSO concentration in the assay was 1%. After 2 hours incubation, cells were fixed by replacing the assay medium with 100 μl of 4% formaldehyde (Bio-Connect, Huissen, The Netherlands) in PBS. After 20 minutes of incubation at room temperature, cells were washed three times with 200 μl wash buffer (0.1% (vol/vol) Triton X-100 in PBS from the FACE kit) followed by an incubation of 20 minutes with 100 μl quenching buffer, containing 1% (vol/vol) hydrogen peroxide (Thermo Fisher Scientific) and 0.1% (vol/vol) sodium azide (Sigma-Aldrich) in phosphate-buffered saline. Cells were washed two times with wash buffer, incubated for 1 hour with 100 μl antibody blocking buffer from the kit and washed two times again. 40 μl of diluted antibody against phosphorylated ERK1/2 (1:500 from the FACE kit) was added and incubated overnight at 4° C. The phospho-ERK antibody has been raised against a synthetic phospho-peptide corresponding to residues Thr202 and Tyr204 of human ERK1 and Thr185 and Tyr187 of human ERK2. For the detection of total ERK, antibody against ERK1 and ERK2 (1:500 from the FACE kit) was added. The excessive primary antibody was washed out, and 100 μl diluted HRP-conjugated anti-rabbit IgG (1:2000 from the FACE kit) was added and incubated for 1 hour at room temperature. Secondary antibody was removed and cells were washed 3 times with wash buffer and twice with PBS. 50 μl per well of FACE chemiluminescent working solution was added. Chemiluminescence was measured on an Envision Multilabel reader.

[3] abbreviates: class given as below 100 nM (pIC50>7).
[4] abbreviates: between 1 μM and 100 nM (6<pIC50<7).
Where [5] appears, read: class between 10 μM and 1 μM (5<pIC50<6).

Read-outs that look alike come from different tables or passages of the source. A value given as a limit tells only on which side of the number the result lay.

T1 sequence (P15056 416-766, stated change not applied): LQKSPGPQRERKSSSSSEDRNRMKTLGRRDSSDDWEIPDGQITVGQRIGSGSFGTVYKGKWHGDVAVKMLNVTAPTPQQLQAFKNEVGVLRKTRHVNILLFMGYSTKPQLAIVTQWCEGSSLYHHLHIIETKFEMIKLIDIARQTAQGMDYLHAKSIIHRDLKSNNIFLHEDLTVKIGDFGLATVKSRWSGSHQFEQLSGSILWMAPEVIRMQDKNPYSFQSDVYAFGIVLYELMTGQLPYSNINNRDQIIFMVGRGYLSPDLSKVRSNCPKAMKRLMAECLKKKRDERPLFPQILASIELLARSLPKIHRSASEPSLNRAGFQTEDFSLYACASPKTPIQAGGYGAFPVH

With `Cc1ccc(NC(=O)c2cccc(C(C)(C)C#N)c2)cc1NC(=O)c1cc2nc(N(C)C)cnc2s1` [Example 15, N-(5-(3-(2-cyanopropan-2-yl)benzamido)-2-methylphenyl)-2-(dimethylamino)thieno[2,3-b]pyrazine-6-carboxamide], the IC50 in test [1] is under 10 nM; in test [2] (setting [3]), under 100 nM.

Consider `Cc1ccc(NC(=O)c2cccc(C(C)(C)C#N)c2)cc1NC(=O)c1cc2nc(NC(C)C)cnc2s1` [Example 16, N-(5-(3-(2-cyanopropan-2-yl)benzamido)-2-methylphenyl)-2-(isopropylamino)thieno[2,3-b]pyrazine-6-carboxamide], for which the IC50 in test [1] and in test [2] (setting [3]) was under 100 nM throughout.

For the compound `CNc1cnc2sc(C(=O)Nc3cc(NC(=O)c4cccc(C(C)(C)C#N)c4)ccc3C)cc2n1` [Example 17, N-(5-(3-(2-cyanopropan-2-yl)benzamido)-2-methylphenyl)-2-(methylamino)thieno[2,3-b]pyrazine-6-carboxamide], the IC50 in test [1] is under 100 nM; in test [2] (setting [4]), 100 to 1000 nM.

As to `Cc1ccc(NC(=O)c2cccc(C(C)(C)C#N)c2)cc1NC(=O)c1cc2nc(NCc3ccncc3)cnc2s1` [Example 18, N-(5-(3-(2-cyanopropan-2-yl)benzamido)-2-methylphenyl)-2-(pyridin-4-ylmethylamino)thieno[2,3-b]pyrazine-6-carboxamide], the IC50 in test [1] was under 10 nM; in test [2] (setting [4]), 100 to 1000 nM.

As for `CC(=O)c1cnc2sc(C(=O)Nc3cc(NC(=O)c4cccc(C(C)(C)C#N)c4)ccc3C)cc2n1` [Example 19, 2-acetyl-N-(5-(3-(2-cyanopropan-2-yl)benzamido)-2-methylphenyl)thieno[2,3-b]pyrazine-6-carboxamide], the IC50 in test [1] was under 100 nM; in test [2] (setting [5]), 1000 to 10000 nM.

As for `Cc1ccc(NC(=O)c2cccc(C(C)(C)C#N)c2)cc1NC(=O)c1cc2nc(-c3cccnc3)cnc2s1` [Example 20, N-(5-(3-(2-cyanopropan-2-yl)benzamido)-2-methylphenyl)-2-(pyridin-3-yl)thieno[2,3-b]pyrazine-6-carboxamide], the concentration for half-maximal inhibition (IC50) in test [1] was under 10 nM; in test [2] (setting [3]), under 100 nM.

On to `Cc1ccc(NC(=O)c2cccc(C(C)(C)C#N)c2)cc1NC(=O)c1cc2nc(-c3ccncc3)cnc2s1` [Example 21, N-(5-(3-(2-cyanopropan-2-yl)benzamido)-2-methylphenyl)-2-(pyridin-4-yl)thieno[2,3-b]pyrazine-6-carboxamide], for which the IC50 in test [1] and in test [2] (setting [3]) was under 100 nM in each case.

For the compound `Cc1cnc2sc(C(=O)Nc3cc(NC(=O)c4cccc(C(C)(C)C#N)c4)ccc3C)cc2n1` [Example 24, N-(5-(3-(2-cyanopropan-2-yl)benzamido)-2-methylphenyl)-2-methylthieno[2,3-b]pyrazine-6-carboxamide], the values for the IC50 in test [1] and in test [2] (setting [4]) were under 10 nM and 100 to 1000 nM, respectively.

With `Cc1ccc(NC(=O)c2ccnc(N3CCCC3)c2)cc1NC(=O)c1cc2nccnc2s1` [Example 26, N-(2-methyl-5-(2-(pyrrolidin-1-yl)isonicotinamido)phenyl)thieno[2,3-b]pyrazine-6-carboxamide], the IC50 in test [1] is under 100 nM; in test [2] (setting [5]), 1000 to 10000 nM.

Take `Cc1ccc(NC(=O)c2cccc(C(C)(C)C#N)c2)cc1NC(=O)c1cc2nccnc2s1` [Example 27, N-(5-(3-(2-cyanopropan-2-yl)benzamido)-2-methylphenyl)thieno[2,3-b]pyrazine-6-carboxamide]: the IC50 in test [1] was under 10 nM; in test [2] (setting [4]), 100 to 1000 nM.

`COc1ccc(C(=O)Nc2ccc(C)c(NC(=O)c3cc4nccnc4s3)c2)cc1C(F)(F)F` [Example 28, N-(5-(4-methoxy-3-(trifluoromethyl)benzamido)-2-methylphenyl)thieno[2,3-b]pyrazine-6-carboxamide]: the results for the IC50 in test [1] and in test [2] (setting [4]) were under 100 nM and 100 to 1000 nM, respectively.

Take `Cc1ccc(NC(=O)c2cccc(C3(C#N)CC3)c2)cc1NC(=O)c1cc2nccnc2s1` [Example 29, N-(5-(3-(1-cyanocyclopropyl)benzamido)-2-methylphenyl)thieno[2,3-b]pyrazine-6-carboxamide]: the IC50 in test [1] is under 10 nM; in test [2] (setting [4]), 100 to 1000 nM.

Consider `Cc1ccc(NC(=O)c2cc(C(C)(C)C)n[nH]2)cc1NC(=O)c1cc2nccnc2s1` [Example 30, N-(5-(3-tert-butyl-1H-pyrazole-5-carboxamido)-2-methylphenyl)thieno[2,3-b]pyrazine-6-carboxamide], for which the IC50 in test [1] is under 100 nM; in test [2] (setting [4]) it was 100 to 1000 nM.

For `Cc1ccc(NC(=O)c2ccc(C)c(C(F)(F)F)c2)cc1NC(=O)c1cc2nccnc2s1` [Example 31, N-(2-methyl-5-(4-methyl-3-(trifluoromethyl)benzamido)phenyl)thieno[2,3-b]pyrazine-6-carboxamide], the IC50 in test [1] was under 100 nM; in test [2] (setting [4]), 100 to 1000 nM.

Consider `Cc1ccc(NC(=O)c2cc(F)cc(C(F)(F)F)c2)cc1NC(=O)c1cc2nccnc2s1` [Example 32, N-(5-(3-fluoro-5-(trifluoromethyl)benzamido)-2-methylphenyl)thieno[2,3-b]pyrazine-6-carboxamide], for which the IC50 in test [1] was under 100 nM; in test [2] (setting [5]) it was 1000 to 10000 nM.
